Results published in US8431563B2 (priority 2010, dated 2013).
Like-named read-outs stand apart in the source and are kept apart here.

Legend:
[1] = molecular target: T1, GKRP (Glucokinase Regulatory Protein) with human His-hepatic GK (Homo sapiens, UniProt Q14397); test: biochemical
T1 sequence (Q14397 1-625): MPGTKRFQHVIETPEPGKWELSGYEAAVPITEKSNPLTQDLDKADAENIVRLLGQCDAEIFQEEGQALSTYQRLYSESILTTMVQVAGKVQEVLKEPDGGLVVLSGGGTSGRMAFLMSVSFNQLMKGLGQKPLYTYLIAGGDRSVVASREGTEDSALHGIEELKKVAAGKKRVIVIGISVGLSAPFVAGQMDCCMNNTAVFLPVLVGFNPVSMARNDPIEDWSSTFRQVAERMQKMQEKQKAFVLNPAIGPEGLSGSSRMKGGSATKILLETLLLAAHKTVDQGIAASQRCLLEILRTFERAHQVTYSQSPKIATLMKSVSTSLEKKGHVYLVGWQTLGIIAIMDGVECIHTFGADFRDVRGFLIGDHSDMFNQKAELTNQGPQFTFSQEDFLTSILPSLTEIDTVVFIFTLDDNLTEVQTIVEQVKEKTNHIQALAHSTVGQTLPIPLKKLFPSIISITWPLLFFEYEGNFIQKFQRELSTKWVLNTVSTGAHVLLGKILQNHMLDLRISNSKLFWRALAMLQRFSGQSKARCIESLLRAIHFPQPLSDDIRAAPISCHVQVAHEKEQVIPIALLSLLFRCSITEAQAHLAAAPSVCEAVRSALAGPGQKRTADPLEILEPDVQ
Procedure, shortened: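 Product formation, 13C-glucose-6-phosphate from 13C-glucose, was measured directly by LC MS/MS after acetonitrile quench. The GK reaction ran 30 min at room temperature in Tris pH 7.5 buffer with 4 mM MgCl2 and 6% DMSO. The 5× enzyme stock was 30 nM His-tagged human hepatic glucokinase.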

[2] = molecular target: T2, interaction between glucokinase (GK) and glucokinase regulatory protein (GKRP) (Homo sapiens, UniProt Q14397); test: biochemical; format: binding; details: read-out: GK-GKRP IC50 (Binding)
T2 sequence (Q14397 1-625): T1 sequence (Q14397 1-625)
Procedure, shortened: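 Measures direct GK–GKRP binding in 20 mM Tris pH 7.5 containing 1 μM sorbitol-6-phosphate, 0.05% BSA and 1 mM DTT. Compound and avi-tagged GKRP sit 20 min at room temperature before GK-fluorescein addition (6 nM in the added buffer); read after 2 h dark incubation at room temperature.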

[3] = 13C-glucose-6-phosphate formation, 280 nM GKRP (10×), 30 nM GK (5×), read-out: GK-GKRP EC50 (LC MS/MS-2)
[4] = avi-tagged GKRP, GK-fluorescein, AlphaScreen beads
[5] = read-out: GK-GKRP EC50 (LC MS/MS-2)

## CC(O)(c1ccc(N2CCN(S(=O)(=O)c3cccs3)C[C@@H]2CN(c2ccccc2)S(C)(=O)=O)cc1)C(F)(F)F (mixture of isomers) [Example 204, N-phenyl-N-(((2R)-4-(2-thiophenylsulfonyl)-1-(4-(2,2,2-trifluoro-1-hydroxy-1-methylethyl)phenyl)-2-piperazinyl)methyl)methanesulfonamide]
[1]; [3]
  EC50: 32 nM
[2]; [4]
  IC50: 4 nM

## CC(O)(c1ccc(N2CCN(S(=O)(=O)c3cccs3)C[C@@H]2CN2CCOC[C@@H]2CO)cc1)C(F)(F)F (single isomer, unassigned) [Example 111 Peak #1]
[1]; [3]
  EC50: 99 nM
[2]; [4]
  IC50: 64 nM

## CC1(C)C(=O)NC(=O)N1C[C@H]1CN(S(=O)(=O)c2cccs2)CCN1c1ccc(C(C)(O)C(F)(F)F)cc1 (mixture of isomers) [Example 228, 5,5-dimethyl-1-(((2S)-4-(2-thiophenylsulfonyl)-1-(4-(2,2,2-trifluoro-1-hydroxy-1-methylethyl)phenyl)-2-piperazinyl)methyl)-2,4-imidazolidinedione]
[1]; [3]
  EC50: 312 nM
[2]; [4]
  IC50: 151 nM

## C[C@H]1CN(S(=O)(=O)c2nccs2)CCN1c1ncc(C(O)(C(F)(F)F)C(F)(F)F)cn1 [Example 146, 1,1,1,3,3,3-hexafluoro-2-(2-((2S)-2-methyl-4-(1,3-thiazol-2-ylsulfonyl)-1-piperazinyl)-5-pyrimidinyl)-2-propanol]
[1]; [3]
  EC50: 867 nM
[2]; [4]
  IC50: 630 nM

## O=S(=O)(c1cccs1)N1CCN(c2ncc(C(O)(C(F)(F)F)C(F)(F)F)cn2)[C@@H](CC2CCOCC2)C1 [Example 134, 1,1,1,3,3,3-hexafluoro-2-(2-((2S)-2-(tetrahydro-2H-pyran-4-ylmethyl)-4-(2-thiophenylsulfonyl)-1-piperazinyl)-5-pyrimidinyl)-2-propanol]
[1]; [3]
  EC50: 79 nM
[2]; [4]
  IC50: 122 nM

## O=S(=O)(c1ccccc1)N1CCN(c2ncc(C(O)(C(F)(F)F)C(F)(F)F)cn2)[C@@H](CN2C3COCC2C(O)C3)C1 (mixture of isomers) [Example 80, 8-(((2S)-4-(phenylsulfonyl)-1-(5-(2,2,2-trifluoro-1-hydroxy-1-(trifluoromethyl)ethyl)-2-pyrimidinyl)-2-piperazinyl)methyl)-3-oxa-8-azabicyclo[3.2.1]octan-6-ol]
[1]; [3]
  EC50: 136 nM
[2]; [4]
  IC50: 125 nM

## CN(C)C(=O)CC1COCCN1C[C@H]1CN(S(=O)(=O)c2cccs2)CCN1c1ccc(C(C)(O)C(F)(F)F)cc1 (mixture of isomers) [Example 114, N,N-dimethyl-2-(4-(((2S)-4-(2-thiophenylsulfonyl)-1-(4-(2,2,2-trifluoro-1-hydroxy-1-methylethyl)phenyl)-2-piperazinyl)methyl)-3-morpholinyl)acetamide]
[1]; [3]
  EC50: 124 nM
[2]; [4]
  IC50: 90 nM

## CN(C[C@H]1CN(S(=O)(=O)c2cccs2)CCN1c1ccc(C(C)(O)C(F)(F)F)cc1)S(C)(=O)=O (mixture of isomers) [Example 208, N-methyl-N-(((2S)-4-(2-thiophenylsulfonyl)-1-(4-(2,2,2-trifluoro-1-hydroxy-1-methylethyl)phenyl)-2-piperazinyl)methyl)methane sulfonamide]
[1]; [3]
  EC50: 234 nM
[2]; [4]
  IC50: 112 nM

## CC(=O)N(C[C@H]1CN(S(=O)(=O)c2cccs2)CCN1c1ccc(C(C)(O)C(F)(F)F)cc1)c1ccccc1 (mixture of isomers) [Example 224, N-phenyl-N-(((2S)-4-(2-thiophenylsulfonyl)-1-(4-(2,2,2-trifluoro-1-hydroxy-1-methylethyl)phenyl)-2-piperazinyl)methyl)acetamide]
[1]; [3]
  EC50: 27 nM
[2]; [4]
  IC50: 8 nM

## CC(O)(c1ccc(N2CCN(S(=O)(=O)c3cccs3)C[C@@H]2CN2CCOCC2CNS(C)(=O)=O)cc1)C(F)(F)F (single isomer, unassigned) [Example 112 Peak #1]
[1]; [5]
  EC50: 986 nM
[2]
  IC50: 275 nM

## CC(O)(c1ccc(N2CCN(S(=O)(=O)c3cccs3)CC2CN2C3COCC2C(O)C3)cc1)C(F)(F)F (single isomer, unassigned) [Example 77 Peak #3]
[1]; [3]
  EC50: 58 nM
[2]; [4]
  IC50: 29 nM

## CC(O)C#Cc1cc(C(O)(C(F)(F)F)C(F)(F)F)ccc1N1CCN(S(=O)(=O)c2cccs2)CC1 (racemic) [Example 151, 4-(2-(4-(2-thiophenylsulfonyl)-1-piperazinyl)-5-(2,2,2-trifluoro-1-hydroxy-1-(trifluoromethyl)ethyl)phenyl)-3-butyn-2-ol]
[1]; [3]
  EC50: 994 nM
[2]; [4]
  IC50: 396 nM

## CC1(CN(C[C@H]2CN(S(=O)(=O)c3cccs3)CCN2c2ccc(C(C)(O)C(F)(F)F)cc2)S(C)(=O)=O)COC1 (mixture of isomers) [Example 216, N-((3-methyl-3-oxetanyl)methyl)-N-(((2S)-4-(2-thiophenylsulfonyl)-1-(4-(2,2,2-trifluoro-1-hydroxy-1-methylethyl)phenyl)-2-piperazinyl)methyl)methanesulfonamide]
[1]; [3]
  EC50: 194 nM
[2]; [4]
  IC50: 172 nM

## CC(O)(c1ccc(N2CCN(S(=O)(=O)c3cccs3)C[C@@H]2CN2C3CCCC2CC(O)C3)cc1)C(F)(F)F (mixture of isomers) [Example 141, 9-(((2S)-4-(2-thiophenylsulfonyl)-1-(4-(2,2,2-trifluoro-1-hydroxy-1-methylethyl)phenyl)-2-piperazinyl)methyl)-9-azabicyclo[3.3.1]nonan-3-ol (endo)]
[1]; GK-GKRP EC50 (LC MS/MS-2), 13C-glucose-6-phosphate formation, 280 nM GKRP (10×), 30 nM GK (5×)
  EC50: 26 nM
[2]; [4]
  IC50: 11 nM

## CC(O)(c1ccc(N2CCN(S(=O)(=O)c3cccs3)C[C@@H]2CN2CCOC[C@@H]2CO)cc1)C(F)(F)F (single isomer, unassigned) [Example 111 Peak #2]
[1]; [5]
  EC50: 113 nM
[2]
  IC50: 67 nM

## CC(O)(c1ccc(N2CCN(S(=O)(=O)c3cccs3)C[C@@H]2CS(=O)(=O)c2ccc(F)cc2)cc1)C(F)(F)F (mixture of isomers) [Example 191 Peak#1, 1,1,1-trifluoro-2-(4-((2R)-2-(((4-fluorophenyl)sulfonyl)methyl)-4-(2-thiophenylsulfonyl)-1-piperazinyl)phenyl)-2-propanol]
[1]; [3]
  EC50: 166 nM
[2]; [4]
  IC50: 177 nM

## COc1ccccc1CC1CN(S(=O)(=O)c2cccs2)CCN1c1ccc(C(O)(C(F)(F)F)C(F)(F)F)cc1 (racemic) [Example 174, 1,1,1,3,3,3-hexafluoro-2-(4-(2-(2-methoxybenzyl)-4-(thiophen-2-ylsulfonyl)piperazin-1-yl)phenyl)-2-propanol]
[1]; [3]
  EC50: 114 nM
[2]; [4]
  IC50: 167 nM

## CC1CS(=O)(=O)CCN1C[C@H]1CN(S(=O)(=O)c2cccs2)CCN1c1ccc(C(C)(O)C(F)(F)F)cc1 (mixture of isomers) [Example 86, 1,1,1-trifluoro-2-(4-((2S)-2-((3-methyl-1,1-dioxido-4-thiomorpholinyl)methyl)-4-(2-thiophenylsulfonyl)-1-piperazinyl)phenyl)-2-propanol]
[1]; [3]
  EC50: 115 nM
[2]; [4]
  IC50: 61 nM

## C[C@H]1COCCN1C[C@H]1CN(S(=O)(=O)c2cccs2)CCN1c1ccc(C(O)(CO)C(F)(F)F)cc1 (single isomer, unassigned) [Example 83 Peak #1]
[1]; [3]
  EC50: 68 nM
[2]; [4]
  IC50: 32 nM

## CC(C)N(C[C@H]1CN(S(=O)(=O)c2cccs2)CCN1c1ccc(C(C)(O)C(F)(F)F)cc1)S(C)(=O)=O (mixture of isomers) [Example 195, N-(1-methylethyl)-N-(((2R)-4-(2-thiophenylsulfonyl)-1-(4-(2,2,2-trifluoro-1-hydroxy-1-methylethyl)phenyl)-2-piperazinyl)methyl)methanesulfonamide]
[1]; [3]
  EC50: 57 nM
[2]; [4]
  IC50: 28 nM
